Test results taken from ChEMBL document CHEMBL1201862, “PubChem BioAssay data set” (2004).
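Grown in 96-well plates, cells were treated for 48 hours with each compound at five concentrations. Insufficient inhibition: endpoint recorded as highest concentration tested. Abbreviation: GI50, concentration required for 50% inhibition of growth.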 Activity calls are given as the source filed them. No stated cut-off is given here; in the data, active = GI50 up to about 1.1 µM and inactive = higher.

Columns and labels:
Experiment in all cases: NCI tumour cell line growth inhibition, 48 h
786-0 = system: 786-0
A549 = system: A549
BT-549 = system: BT-549
CAKI-1 = system: CAKI-1
CCRF-CEM = system: CCRF-CEM
COLO 205 = system: COLO 205
DU-145 = system: DU-145
EKVX = system: EKVX
HCC 2998 = system: HCC 2998
HCT-116 = system: HCT-116
HCT-15 = system: HCT-15
HL-60 = system: HL-60
HOP-62 = system: HOP-62
HT-29 = system: HT-29
Hs-578T = system: Hs-578T
IGROV-1 = system: IGROV-1
K562 = system: K562
KM12 = system: KM12
LOX IMVI = system: LOX IMVI
M14 = system: M14
MCF7 = system: MCF7
MDA-MB-231 = system: MDA-MB-231
MDA-MB-435 = system: MDA-MB-435
MDA-N = system: MDA-N
MOLT-4 = system: MOLT-4
Malme-3M = system: Malme-3M
NCI-H226 = system: NCI-H226
NCI-H23 = system: NCI-H23
NCI-H460 = system: NCI-H460
NCI-H522 = system: NCI-H522
NCI/ADR-RES = system: NCI/ADR-RES
OVCAR-3 = system: OVCAR-3
OVCAR-4 = system: OVCAR-4
OVCAR-8 = system: OVCAR-8
PC-3 = system: PC-3
RPMI-8226 = system: RPMI-8226
RXF 393 = system: RXF 393
SF-268 = system: SF-268
SF-295 = system: SF-295
SF-539 = system: SF-539
SK-MEL-28 = system: SK-MEL-28
SK-MEL-2 = system: SK-MEL-2
SK-MEL-5 = system: SK-MEL-5
SK-OV-3 = system: SK-OV-3
SN12C = system: SN12C
SNB-19 = system: SNB-19
SNB-75 = system: SNB-75
SW-620 = system: SW-620
T47D = system: T47D
TK-10 = system: TK-10
U-251 = system: U-251
UACC-257 = system: UACC-257
UACC-62 = system: UACC-62
UO-31 = system: UO-31
A498 = system: A498
ACHN = system: ACHN
HOP-92 = system: HOP-92
OVCAR-5 = system: OVCAR-5
SR = system: SR

How did the GI50 (786-0) turn out when [N-]=[N+]=NC[C@H]1OCO[C@H](CN=[N+]=[N-])[C@H]2OCCOCCOc3ccccc3OCCOCCO[C@@H]21 was run?
Its GI50 is > 100 µM (inactive).

What about the GI50 (A549) of the same compound?
The GI50 was > 100 µM (inactive).

What about the GI50 (BT-549) of the same compound?
The GI50 was > 100 µM (inactive).

What about the GI50 (CAKI-1) of the same compound?
Its GI50 is > 100 µM (inactive).

And the GI50 (CCRF-CEM)?
Its GI50 is > 100 µM (inactive).

What about the GI50 (COLO 205) of the same compound?
Its GI50 is > 100 µM (inactive).

And the GI50 (DU-145)?
The GI50 was > 100 µM (inactive).

What about the GI50 (EKVX) of the same compound?
Its GI50 is > 100 µM (inactive).

What about the GI50 (HCC 2998) of the same compound?
The GI50 was > 100 µM (inactive).

What about the GI50 (HCT-116) of the same compound?
The GI50 was > 100 µM (inactive).

And the GI50 (HCT-15)?
The GI50 was greater than 100 µM.

What about the GI50 (HL-60) of the same compound?
The GI50 was > 100 µM (inactive).

What about the GI50 (HOP-62) of the same compound?
The GI50 was > 100 µM (inactive).

What about the GI50 (HT-29) of the same compound?
The GI50 was > 100 µM (inactive).

And the GI50 (Hs-578T)?
The GI50 was > 100 µM (inactive).

What about the GI50 (IGROV-1) of the same compound?
The GI50 was > 100 µM (inactive).

What about the GI50 (K562) of the same compound?
Its GI50 is > 100 µM (inactive).

What about the GI50 (KM12) of the same compound?
The GI50 was > 100 µM (inactive).

What about the GI50 (LOX IMVI) of the same compound?
The GI50 was > 100 µM (inactive).

What about the GI50 (M14) of the same compound?
The GI50 was > 100 µM (inactive).

What about the GI50 (MCF7) of the same compound?
Its GI50 is > 100 µM (inactive).

What about the GI50 (MDA-MB-231) of the same compound?
The GI50 was > 100 µM (inactive).

What about the GI50 (MDA-MB-435) of the same compound?
The GI50 was > 100 µM (inactive).

What about the GI50 (MDA-N) of the same compound?
Its GI50 is > 100 µM (inactive).

What about the GI50 (MOLT-4) of the same compound?
The GI50 was > 100 µM (inactive).

And the GI50 (Malme-3M)?
Its GI50 is > 100 µM (inactive).

And the GI50 (NCI-H226)?
The GI50 was > 100 µM (inactive).

What about the GI50 (NCI-H23) of the same compound?
The GI50 was > 100 µM (inactive).

And the GI50 (NCI-H460)?
Its GI50 is > 100 µM (inactive).

What about the GI50 (NCI-H522) of the same compound?
Its GI50 is > 100 µM (inactive).

And the GI50 (NCI/ADR-RES)?
The GI50 was > 100 µM (inactive).

And the GI50 (OVCAR-3)?
Its GI50 is > 100 µM (inactive).

What about the GI50 (OVCAR-4) of the same compound?
The GI50 was > 100 µM (inactive).

And the GI50 (OVCAR-8)?
The GI50 was > 100 µM (inactive).

What about the GI50 (PC-3) of the same compound?
The GI50 was > 100 µM (inactive).

And the GI50 (RPMI-8226)?
Its GI50 is > 100 µM (inactive).

And the GI50 (RXF 393)?
The GI50 was > 100 µM (inactive).

What about the GI50 (SF-268) of the same compound?
The GI50 was > 100 µM (inactive).

What about the GI50 (SF-295) of the same compound?
The GI50 was > 100 µM (inactive).

What about the GI50 (SF-539) of the same compound?
Its GI50 is > 100 µM (inactive).

And the GI50 (SK-MEL-28)?
Its GI50 is > 100 µM (inactive).

And the GI50 (SK-MEL-2)?
Its GI50 is > 100 µM (inactive).

What about the GI50 (SK-MEL-5) of the same compound?
Its GI50 is > 100 µM (inactive).

And the GI50 (SK-OV-3)?
The GI50 was > 100 µM (inactive).

What about the GI50 (SN12C) of the same compound?
The GI50 was > 100 µM (inactive).

And the GI50 (SNB-19)?
The GI50 was > 100 µM (inactive).

And the GI50 (SNB-75)?
The GI50 was 76.4 µM (inactive).

What about the GI50 (SW-620) of the same compound?
The GI50 was > 100 µM (inactive).

And the GI50 (T47D)?
Its GI50 is > 100 µM (inactive).

What about the GI50 (TK-10) of the same compound?
Its GI50 is > 100 µM (inactive).

What about the GI50 (U-251) of the same compound?
Its GI50 is > 100 µM (inactive).

What about the GI50 (UACC-257) of the same compound?
Its GI50 is > 100 µM (inactive).

And the GI50 (UACC-62)?
Its GI50 is > 100 µM (inactive).

And the GI50 (UO-31)?
The GI50 was 10.1 µM (inactive).

For CN(CC(=O)O)Cc1oc(CO)cc(=O)c1O, which GI50 (786-0) is on record?
Its GI50 is > 100 µM (inactive).

And the GI50 (A498)?
Its GI50 is > 100 µM (inactive).

What about the GI50 (A549) of the same compound?
Its GI50 is > 100 µM (inactive).

And the GI50 (ACHN)?
The GI50 was > 100 µM (inactive).

What about the GI50 (BT-549) of the same compound?
The GI50 was > 100 µM (inactive).

What about the GI50 (CAKI-1) of the same compound?
Its GI50 is > 100 µM (inactive).

What about the GI50 (CCRF-CEM) of the same compound?
Its GI50 is > 100 µM (inactive).

What about the GI50 (COLO 205) of the same compound?
Its GI50 is > 100 µM (inactive).

What about the GI50 (EKVX) of the same compound?
The GI50 was > 100 µM (inactive).

What about the GI50 (HCC 2998) of the same compound?
Its GI50 is > 100 µM (inactive).

What about the GI50 (HCT-116) of the same compound?
The GI50 was > 100 µM (inactive).

And the GI50 (HCT-15)?
Its GI50 is greater than 100 µM.

What about the GI50 (HL-60) of the same compound?
Its GI50 is 30 µM (inactive).

And the GI50 (HOP-62)?
The GI50 was > 100 µM (inactive).

And the GI50 (HOP-92)?
The GI50 was > 100 µM (inactive).

What about the GI50 (HT-29) of the same compound?
Its GI50 is > 100 µM (inactive).

And the GI50 (Hs-578T)?
Its GI50 is > 100 µM (inactive).

What about the GI50 (IGROV-1) of the same compound?
Its GI50 is > 100 µM (inactive).

What about the GI50 (K562) of the same compound?
The GI50 was > 100 µM (inactive).

What about the GI50 (KM12) of the same compound?
The GI50 was > 100 µM (inactive).

And the GI50 (LOX IMVI)?
The GI50 was > 100 µM (inactive).

What about the GI50 (M14) of the same compound?
The GI50 was > 100 µM (inactive).

And the GI50 (MCF7)?
The GI50 was > 100 µM (inactive).

What about the GI50 (MDA-MB-231) of the same compound?
The GI50 was > 100 µM (inactive).

What about the GI50 (MDA-MB-435) of the same compound?
The GI50 was > 100 µM (inactive).

And the GI50 (MDA-N)?
Its GI50 is > 100 µM (inactive).

And the GI50 (MOLT-4)?
The GI50 was > 100 µM (inactive).

What about the GI50 (Malme-3M) of the same compound?
Its GI50 is > 100 µM (inactive).

What about the GI50 (NCI-H226) of the same compound?
The GI50 was > 100 µM (inactive).

And the GI50 (NCI-H23)?
The GI50 was > 100 µM (inactive).

And the GI50 (NCI-H460)?
Its GI50 is > 100 µM (inactive).

What about the GI50 (NCI-H522) of the same compound?
Its GI50 is > 100 µM (inactive).

And the GI50 (NCI/ADR-RES)?
The GI50 was > 100 µM (inactive).

What about the GI50 (OVCAR-3) of the same compound?
The GI50 was > 100 µM (inactive).

And the GI50 (OVCAR-4)?
Its GI50 is > 100 µM (inactive).

What about the GI50 (OVCAR-5) of the same compound?
Its GI50 is > 100 µM (inactive).

And the GI50 (OVCAR-8)?
Its GI50 is > 100 µM (inactive).

And the GI50 (PC-3)?
Its GI50 is > 100 µM (inactive).

And the GI50 (RPMI-8226)?
Its GI50 is > 100 µM (inactive).

What about the GI50 (RXF 393) of the same compound?
Its GI50 is > 100 µM (inactive).

And the GI50 (SF-268)?
The GI50 was > 100 µM (inactive).

And the GI50 (SF-295)?
Its GI50 is > 100 µM (inactive).

And the GI50 (SF-539)?
The GI50 was > 100 µM (inactive).

And the GI50 (SK-MEL-28)?
The GI50 was > 100 µM (inactive).

And the GI50 (SK-MEL-2)?
Its GI50 is > 100 µM (inactive).

And the GI50 (SK-MEL-5)?
Its GI50 is > 100 µM (inactive).

What about the GI50 (SK-OV-3) of the same compound?
The GI50 was > 100 µM (inactive).

And the GI50 (SN12C)?
The GI50 was > 100 µM (inactive).

And the GI50 (SNB-19)?
The GI50 was > 100 µM (inactive).

And the GI50 (SNB-75)?
The GI50 was > 100 µM (inactive).

And the GI50 (SR)?
The GI50 was > 100 µM (inactive).

What about the GI50 (SW-620) of the same compound?
Its GI50 is > 100 µM (inactive).

And the GI50 (T47D)?
Its GI50 is > 100 µM (inactive).

And the GI50 (TK-10)?
The GI50 was > 100 µM (inactive).

What about the GI50 (U-251) of the same compound?
Its GI50 is > 100 µM (inactive).

And the GI50 (UACC-257)?
The GI50 was > 100 µM (inactive).

And the GI50 (UACC-62)?
Its GI50 is > 100 µM (inactive).

What about the GI50 (UO-31) of the same compound?
The GI50 was > 100 µM (inactive).
